Data reported in patent US10041115B2, “3′-OH unblocked, fast photocleavable terminating nucleotides and methods for nucleic acid sequencing” (LASERGEN, INC., priority 2011, dated 2018).

Assay: Photochemical cleavage assays of incorporated nucleotide analogs (365 nm UV light, DT50)
Type: physicochemical
Settings: for DT50 in 1 mM NaN3, 50 mM DTT / DT50 in 1 mM NaN3, No DTT: 365 nm UV, 0.70 W/cm^2, average ± 1SD, triplicate; for DT50 value of ds1 isomer compared with the parent dA.I analog: ds1 isomers of the α-isopropyl C^7-HOMedA set; for faster photochemical cleavage rates of ds2 isomers compared with their ds1 counterparts, factor: ds2 vs ds1 isomer of the same analog; for DT50 values: UV photochemical cleavage experiments
Method: As used herein, the term “DT50” refers to the amount of time required to cleavage 50% of the base analog incorporated in the primer-template complex.
To compare the rates of photochemical cleavage between the nucleotide analogs described here, a protocol was developed to deliver a daily light intensity output of 0.70±0.01 W/cm^2 to samples, see below.
The power supply was turned on for about 30 min prior to that of the lamp and recirculation bath as described by the manufacturer. The IR liquid filter was cooled to 9° C. Light intensity was determined using a model PM100 power meter (Thorlabs), a 1000 μm pinhole (Edmund Optics), a modified 0.5 mL Eppendorf tube cut in half, and a 3-axis manual translation stage (Newport), see FIG. 5. The half cut Eppendorf tube was positioned in front of the pinhole and power meter detector head to account for the geometric shape distortion of the light as it passes through a reaction solution. The translation stage was then used to align the tube/pinhole/detector device with the highest intensity from the arc beam.
To stabilize its output, the lamp was left on for one hour prior to intensity measurements. Thereafter, the measured power was adjusted by increasing the current from the power supply. In order to achieve intensity (I) of 0.70 W/cm^2, the measured power (P) was adjusted to ˜5.5 mW, according to the equation:
[formula] where r is the radius of pinhole.
The beam was then focused by placing an 0.5 mL Eppendorf tube into the sample holder, the tube of which was modified with an internal alignment card to provide reference lines for volume heights of 10 μL and 20 μL, see FIG. 5. The reference lines enabled the beam to be centered for a given reaction volume. Beam alignment was further verified by observing the mercury arc image of the lamp produced by the rear reflector. A second alignment card was placed into the rotating sample holder to view the image, which when properly aligned using the reflector would produce an inverted arc image on the arc gap itself. This step ensured that arc hotspots were not superimposed, which could cause overheating while maintaining a power output of ˜5.5 mW. The speed of the rotating sample holder was adjusted within a range of 1,200-1,350 rpm using a Nova-Strobe DA Plus stroboscope (Monarch Instrument) by adjusting the motor's torque with an adjustment screw.
Photochemical cleavage assays: Nucleotide analogs were incorporated using 10 μL reactions, as described for the PEP assays, at a final concentration of 100 nM. […] OligoTemplate-2, oligoTemplate-5, and oligoTemplate-4 each hybridized with BODIPY-FL labeled primer-1 were used for C^7-HOMedA, C^7-HOMedG, and HOMedU analogs, respectively. OligoTemplate-8 hybridized with BODIPY-FL labeled primer-3 was used to assay HOMedC analogs. Incorporated reactions were quenched with either 1 mM sodium azide solution; 1 mM sodium azide, 50 mM DTT solution; or reagents C-G (see key in FIG. 4), exposed to 365 nm ultraviolet (UV) light for various time points using our UV deprotector, and then placed on ice.

[1] = α-tert-butyl C^7-HOMedG analogs, ds1 isomers

| SMILES | DT50 in 1 mM NaN3, 50 mM DTT (Table 1, C^7-HOMedA analogs) [s] | DT50 in 1 mM NaN3, No DTT (Table 1, C^7-HOMedA analogs) [s] | faster photochemical cleavage rates of ds2 isomers compared with their ds1 counterparts, factor [×] | DT50 in 1 mM NaN3, 50 mM DTT (Table 2, C^7-HOMedG analogs) [s] | DT50 in 1 mM NaN3, No DTT (Table 2, C^7-HOMedG analogs) [s] | other results |
| --- | --- | --- | --- | --- | --- | --- |
| CC(C)C(OCc1cn([C@H]2C[C@H](O)[C@@H](COP(=O)(O)OP(=O)(O)OP(=O)(O)O)O2)c2ncnc(N)c12)c1ccccc1[N+](=O)[O-] (single isomer, unassigned) [dA.III.a ds1, 7-[1-(2-nitrophenyl)-2-methyl-propyloxy]methyl-7-deaza-2′-deoxyadenosine-5′-triphosphate] | 4.4 ± 0.2 | 4.5 ± 0.2 | – | – | – | DT50 value of ds1 isomer compared with the parent dA.I analog: higher |
| CC(C)C(OCc1cn([C@H]2C[C@H](O)[C@@H](COP(=O)(O)OP(=O)(O)OP(=O)(O)O)O2)c2ncnc(N)c12)c1ccccc1[N+](=O)[O-] (single isomer, unassigned) [dA.III.a ds2, 7-[1-(2-nitrophenyl)-2-methyl-propyloxy]methyl-7-deaza-2′-deoxyadenosine-5′-triphosphate] | 2.1 ± 0.1 | 2.2 ± 0.1 | 2.0 | – | – | – |
| COc1ccc(C(OCc2cn([C@H]3C[C@H](O)[C@@H](COP(=O)(O)OP(=O)(O)OP(=O)(O)O)O3)c3ncnc(N)c23)C(C)C)c([N+](=O)[O-])c1 (single isomer, unassigned) [dA.III.b ds1, 7-[1-(4-methoxy-2-nitrophenyl)-2-methyl-propyloxy]methyl-7-deaza-2′-deoxyadenosine-5′-triphosphate] | 6.1 ± 0.4 | 7.0 ± 0.3 | – | – | – | DT50 value of ds1 isomer compared with the parent dA.I analog: higher |
| COc1ccc(C(OCc2cn([C@H]3C[C@H](O)[C@@H](COP(=O)(O)OP(=O)(O)OP(=O)(O)O)O3)c3ncnc(N)c23)C(C)C)c([N+](=O)[O-])c1 (single isomer, unassigned) [dA.III.b ds2, 7-[1-(4-methoxy-2-nitrophenyl)-2-methyl-propyloxy]methyl-7-deaza-2′-deoxyadenosine-5′-triphosphate] | 1.0 ± 0.1 | 1.1 ± 0.1 | 6.4 | – | – | – |
| CC(C)C(OCc1cn([C@H]2C[C@H](O)[C@@H](COP(=O)(O)OP(=O)(O)OP(=O)(O)O)O2)c2ncnc(N)c12)c1c([N+](=O)[O-])cccc1[N+](=O)[O-] (single isomer, unassigned) [dA.III.c ds1, 7-[1-(2,6-dinitrophenyl)-2-methyl-propyloxy]methyl-7-deaza-2′-deoxyadenosine-5′-triphosphate] | 3.0 ± 0.2 | 3.4 ± 0.2 | – | – | – | DT50 value of ds1 isomer compared with the parent dA.I analog: similar |
| CC(C)C(OCc1cn([C@H]2C[C@H](O)[C@@H](COP(=O)(O)OP(=O)(O)OP(=O)(O)O)O2)c2ncnc(N)c12)c1c([N+](=O)[O-])cccc1[N+](=O)[O-] (single isomer, unassigned) [dA.III.c ds2, 7-[1-(2,6-dinitrophenyl)-2-methyl-propyloxy]methyl-7-deaza-2′-deoxyadenosine-5′-triphosphate] | 2.5 ± 0.1 | 2.8 ± 0.2 | 1.2 | – | – | – |
| CC(C)(C)C(OCc1cn([C@H]2C[C@H](O)[C@@H](COP(=O)(O)OP(=O)(O)OP(=O)(O)O)O2)c2nc(N)[nH]c(=O)c12)c1ccccc1[N+](=O)[O-] (single isomer, unassigned) [dG.V.a ds2, 7-[1-(2-nitrophenyl)-2,2-dimethyl-propyloxy]methyl-7-deaza-2′-deoxyguanosine-5′-triphosphate] | – | – | 3.1 | 3.5 ± 0.3 | 3.6 ± 0.3 | – |
| COc1ccc(C(OCc2cn([C@H]3C[C@H](O)[C@@H](COP(=O)(O)OP(=O)(O)OP(=O)(O)O)O3)c3nc(N)[nH]c(=O)c23)C(C)(C)C)c([N+](=O)[O-])c1 (single isomer, unassigned) [dG.V.b ds1, 7-[1-(4-methoxy-2-nitrophenyl)-2,2-dimethyl-propyloxy]methyl-7-deaza-2′-deoxyguanosine-5′-triphosphate] | – | – | – | 4.6 ± 0.3 | 4.9 ± 0.3 | – |
| COc1ccc(C(OCc2cn([C@H]3C[C@H](O)[C@@H](COP(=O)(O)OP(=O)(O)OP(=O)(O)O)O3)c3nc(N)[nH]c(=O)c23)C(C)(C)C)c([N+](=O)[O-])c1 (single isomer, unassigned) [dG.V.b ds2, 7-[1-(4-methoxy-2-nitrophenyl)-2,2-dimethyl-propyloxy]methyl-7-deaza-2′-deoxyguanosine-5′-triphosphate] | – | – | 4.5 | 1.3 ± 0.2 | 1.1 ± 0.1 | – |
| COc1ccc([N+](=O)[O-])c(C(OCc2cn([C@H]3C[C@H](O)[C@@H](COP(=O)(O)OP(=O)(O)OP(=O)(O)O)O3)c3nc(N)[nH]c(=O)c23)C(C)(C)C)c1 (single isomer, unassigned) [dG.V.c ds2, 7-[1-(5-methoxy-2-nitrophenyl)-2,2-dimethyl-propyloxy]methyl-7-deaza-2′-deoxyguanosine-5′-triphosphate] | – | – | 4.4 | 0.8 ± 0.1 | 0.8 ± 0.1 | DT50 values: 0.8 s; rate increases, dG.V.c compared with dG.V.a (same isomer (ds1 or ds2) of dG.V.c vs dG.V.a): 4.4 ×; faster photochemical cleavage rates compared with the corresponding 4-OMe isomers (α-tert-butyl C^7-HOMedG analogs, 5-OMe vs 4-OMe): 1.4 × fold |
| COc1cc(C(OCc2cn([C@H]3C[C@H](O)[C@@H](COP(=O)(O)OP(=O)(O)OP(=O)(O)O)O3)c3nc(N)[nH]c(=O)c23)C(C)(C)C)c([N+](=O)[O-])cc1OC (single isomer, unassigned) [dG.V.d ds1, 7-[1-(4,5-dimethoxy-2-nitrophenyl)-2,2-dimethyl-propyloxy]methyl-7-deaza-2′-deoxyguanosine-5′-triphosphate] | – | – | – | 2.3 ± 0.2 | 2.4 ± 0.1 | faster cleavage rates compared with mono-substituted 4-OMe isomer [1]: 2.0 ×; faster cleavage rates compared with mono-substituted 5-OMe isomer [1]: 1.5 × |
| COc1cc(C(OCc2cn([C@H]3C[C@H](O)[C@@H](COP(=O)(O)OP(=O)(O)OP(=O)(O)O)O3)c3nc(N)[nH]c(=O)c23)C(C)(C)C)c([N+](=O)[O-])cc1OC (single isomer, unassigned) [dG.V.d ds2, 7-[1-(4,5-dimethoxy-2-nitrophenyl)-2,2-dimethyl-propyloxy]methyl-7-deaza-2′-deoxyguanosine-5′-triphosphate] | – | – | 3.0 | 0.8 ± 0.1 | 0.8 ± 0.1 | DT50 values: 0.8 s |
